Results from US20230119479A1, “A HISTONE DEACETYLASE INHIBITOR HAVING A NITROGEN-CONTAINING AROMATIC HETEROCYCLYL GROUP” (SHIONOGI & CO., LTD., priority 2019, published 2023).

Experiments:
[1] = target: T1, HDAC2 Human recombinant C-terminal FLAG-tag (Homo sapiens, UniProt Q92769); assay: Measurement of HDAC2 enzyme inhibitory activity (HTRF); assay type: biochemical; details: recombinant HDAC2, H3K9ac peptide, 3 hours room temperature; read-out: HDAC2 IC50
T1 construct: FLAG (C); purchased BPS Bioscience 50052
T1 sequence (Q92769 whole entry): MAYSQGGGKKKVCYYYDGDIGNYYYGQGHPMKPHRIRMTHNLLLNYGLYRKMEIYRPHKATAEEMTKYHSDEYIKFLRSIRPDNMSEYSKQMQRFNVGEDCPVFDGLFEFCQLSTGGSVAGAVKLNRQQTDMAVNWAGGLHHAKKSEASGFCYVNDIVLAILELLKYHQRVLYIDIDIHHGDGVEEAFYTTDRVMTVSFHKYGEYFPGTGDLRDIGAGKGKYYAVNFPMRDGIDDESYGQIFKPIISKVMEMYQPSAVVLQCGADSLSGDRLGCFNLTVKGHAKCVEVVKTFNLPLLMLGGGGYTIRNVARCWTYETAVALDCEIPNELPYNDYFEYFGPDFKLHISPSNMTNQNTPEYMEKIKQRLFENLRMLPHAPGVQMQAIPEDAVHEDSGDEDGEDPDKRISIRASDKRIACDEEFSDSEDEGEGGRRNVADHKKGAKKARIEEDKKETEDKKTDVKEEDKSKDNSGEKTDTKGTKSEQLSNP
How it was run: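 Compounds were tested at 8 points in 3-fold dilutions from 99 μM final (n=2) against FLAG-tagged HDAC2 with biotinylated H3K9ac (1-21) peptide (0.6 μM as added). The reaction ran 3 h at room temperature in Tris pH 8.0 buffer, then was stopped with SAHA. Deacetylated product was detected by HTRF (Eu-anti-H3K9me0 antibody, streptavidin-XL665) as the 665/615-620 nm ratio.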

[2] = Metabolism stability test; assay type: in vitro ADME; details: human liver microsomes 0.5 mg protein/mL, 30 minutes, 37° C., NADPH
Procedure: Using commercially available pooled human hepatic microsomes, a compound of the present invention is reacted for a constant time, and a remaining rate is calculated by comparing a reacted sample and an unreacted sample, thereby, a degree of metabolism in liver is assessed.
A reaction is performed (oxidative reaction) at 37° C. for 0 minute or 30 minutes in the presence of 1 mmol/L NADPH in 0.2 mL of a buffer (50 mmol/L Tris-HCl pH 7.4, 150 mmol/L potassium chloride, 10 mmol/L magnesium chloride) containing 0.5 mg protein/mL of human liver microsomes. After the reaction, 50 μL of the reaction solution is added to 100 μL of a methanol/acetonitrile=1/1 (v/v), mixed and centrifuged at 3000 rpm for 15 minutes. The compound of the present invention in the supernatant is quantified by LC/MS/MS or Solid Phase Extraction (SPE)/MS, and a remaining amount of the compound of the present invention after the reaction is calculated, letting a compound amount at 0 minute reaction time be 100%. The hydrolysis reaction is carried out in the absence of NADPH, and the glucuronidation reaction is carried out in the presence of 5 mmol/L UDP-glucuronic acid instead of NADPH, and the same operation is carried out thereafter. The dilution concentration and dilution solvent are changed as necessary.

[3] = Platelet toxicity test using human blood progenitor cells (WST); assay type: cell-based; details: human bone marrow CD34+ progenitor cells, maximum concentration 25 μM
Procedure: Test Example 2: Platelet Toxicity Test Using Human Blood Progenitor Cells
Human bone marrow CD34+ progenitor cells (Lonza, 2M-101B) stored at −80° C. were thawed, spun down at 150 g for 10 minutes at 20° C., and a medium (StemSpan Expansion Supplement, STEM CELL TECHNOLOGIES, ST-02696) to which cytokines (StemSpan SFEM II, STEM CELL TECHNOLOGIES, ST-09655) was added was added to adjust to 2×10^4/well, the mixture was seeded in 12well non-coat dish (Corning, 3513), was incubated for 10 days at 37° C., 5% CO2. After 10 days, the cells were collected and spun down at 150 g for 10 minutes at 20° C., and a medium (StemSpan Expansion Supplement) containing cytokines (StemSpan SFEM II) was added so that the number of cells became 2×10^5 cells/ml. 50 μl of the cell suspension was seeded to each well of a 96-well plate (Corning, 3596) and allowed to stand overnight in an incubator at 37° C., 5% CO2. The next day, 50 μl of the test compound was treated to each well and allowed to stand for 48 hours in the incubator at 37° C., 5% CO2 (n=2). At this time, the test compound dissolved in 100% DMSO was serially diluted with DMSO at a 3-fold ratio, and then a medium containing cytokine was added to adjust the final concentration to 25, 8.33, 2.78, 0.93, 0.31, 0.1 μM. After that, 10 μl of WST (Cell count reagent SF, Nacalai Tesque Inc., 07553-44) was added to each well, and the mixture was allowed to stand in the incubator for 4 hours at 37° C., 5% CO2, and then the multi-label reader 2030 ARVO X4 (PerkinElmer) was used to measure the absorbance. At this time, the absorbance at 450 nm and the absorbance at 620 nm were obtained, and the difference between 450 nm and 620 nm was used as the measured value. The measured values were analyzed by Excel and TIBCO Spotfire, and IC50 values were calculated. At this time, for control (−), the well without cells was set as n=6 for one row, and the average value was calculated, and for control (+), the well in which DMSO was added to the cells so as to have the same concentration as the compound treatment group was set as n=6 for one row, and the average value was calculated and corrected for each plate. For the test compound, the average value of n=2 was used.

[4] = target: T2, human ether-a-go-go related gene (hERG) channel (Homo sapiens, UniProt Q12809); assay: hERG test (whole cell patch clamp); assay type: cell-based; details: CHO cells expressing hERG; concentration not given
T2 construct: expressed in transfected cells; host or cells: CHO cells
T2 sequence (Q12809 whole entry): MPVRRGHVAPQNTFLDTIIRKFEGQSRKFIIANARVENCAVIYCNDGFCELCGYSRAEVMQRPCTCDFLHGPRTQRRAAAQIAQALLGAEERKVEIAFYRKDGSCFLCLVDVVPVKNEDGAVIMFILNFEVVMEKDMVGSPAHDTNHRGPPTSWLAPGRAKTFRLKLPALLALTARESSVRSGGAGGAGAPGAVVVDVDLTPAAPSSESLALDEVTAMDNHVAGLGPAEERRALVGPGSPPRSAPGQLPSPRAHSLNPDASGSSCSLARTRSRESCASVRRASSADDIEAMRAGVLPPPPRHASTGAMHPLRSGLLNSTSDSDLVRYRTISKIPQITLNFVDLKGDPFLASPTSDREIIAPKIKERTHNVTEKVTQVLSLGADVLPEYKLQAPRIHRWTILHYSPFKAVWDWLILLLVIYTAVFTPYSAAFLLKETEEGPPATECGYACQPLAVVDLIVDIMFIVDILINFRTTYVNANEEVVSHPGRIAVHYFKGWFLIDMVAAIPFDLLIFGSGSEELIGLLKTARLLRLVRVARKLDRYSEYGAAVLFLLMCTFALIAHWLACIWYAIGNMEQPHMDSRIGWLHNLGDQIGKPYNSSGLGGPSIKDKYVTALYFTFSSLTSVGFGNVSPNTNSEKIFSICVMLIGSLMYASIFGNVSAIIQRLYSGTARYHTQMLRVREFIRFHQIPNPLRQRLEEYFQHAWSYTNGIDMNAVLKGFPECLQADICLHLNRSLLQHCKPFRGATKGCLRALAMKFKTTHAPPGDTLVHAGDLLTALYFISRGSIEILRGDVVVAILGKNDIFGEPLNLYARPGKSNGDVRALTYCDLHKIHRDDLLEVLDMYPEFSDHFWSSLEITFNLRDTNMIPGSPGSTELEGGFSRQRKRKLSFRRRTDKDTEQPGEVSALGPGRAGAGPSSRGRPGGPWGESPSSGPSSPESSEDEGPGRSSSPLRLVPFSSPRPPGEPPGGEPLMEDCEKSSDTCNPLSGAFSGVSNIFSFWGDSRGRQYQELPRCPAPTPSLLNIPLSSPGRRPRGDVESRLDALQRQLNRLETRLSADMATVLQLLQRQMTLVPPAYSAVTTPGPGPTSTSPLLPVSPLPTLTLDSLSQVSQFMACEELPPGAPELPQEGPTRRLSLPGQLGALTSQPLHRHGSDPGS
Text: For the purpose of assessing risk of an electrocardiogram QT interval prolongation of the compound of the present invention, effects of the compound of the present invention on delayed rectifier K^+ current (IKr), which plays an important role in the ventricular repolarization process, was studied using CHO cells expressing human ether-a-go-go related gene (hERG) channel.
After a cell was retained at a membrane potential of −80 mV by whole cell patch clamp method using an automated patch clamp system (QPatch; Sophion Bioscience A/S) and gave a leak potential of −50 mV, IKr induced by depolarization pulse stimulation at +20 mV for 2 seconds, and further, repolarization pulse stimulation at −50 mV for 2 seconds, was recorded. A vehicle, which was the 0.1% dimethyle sulfoxide solution in extracellular solution (NaCl: 145 mmol/L, KCl: 4 mmol/L, CaCl2: 2 mmol/L, MgCl2: 1 mmol/L, glucose:10 mmol/L, HEPES (4-(2-hydroxyethyl)-1-piperazineethanesulfonic acid): 10 mmol/L, pH7.4), or the compound of the present invention had been dissolved at an objective concentration in the extracellular solution was applied to the cell at room temperature for 7 minutes or more. From the recording IKr, an absolute value of the tail peak current was measured based on the current value at the resting membrane potential using analysis software (QPatch assay software; Sophion Bioscience A/S). Further, the % inhibition of tail peak current for the compound of the present invention relative to the tail peak current after application of the vehicle was calculated to assess influence of the compound of the present invention on IKr. The dilution concentration and dilution solvent were changed as necessary.

[5] = BA test (oral absorption); assay type: in vivo; details: plasma; mice or rats; oral vs intravenous administration
Procedure: Materials and methods for experiments to evaluate oral absorption (1) Experimental animals: mice or rats were used. (2) Rearing condition: mice or rats were allowed free access to solid feed and sterilized tap water. (3) Setting of dosage and grouping: Oral administration and intravenous administration were performed with the predetermined dosage. Grouping was set as below. (Dosage was changed per compound)
Oral administration 2 to 60 μmol/kg or 1 to 30 mg/kg (n=2 to 3)
Intravenous administration 1 to 30 μmol/kg or 0.5 to 10 mg/kg (n=2 to 3)
(4) Preparation of administration solutions: Oral administration was performed as suspension or solution. Intravenous administration was performed after solubilization. (5) Routes of administration: Oral administration was performed mandatory into the stomach by oral sonde. Intravenous administration was performed from caudal vein by syringes with needle. (6) Evaluation items: Blood was collected serially and concentration of a compound of the present invention in plasma was measured by LC/MS/MS. (7) Statistical analysis: About transition of concentration of a compound of the present invention in plasma, the area under the plasma concentration versus time curve (AUC) was calculated by non-linear least-squares method program, and bioavailability (BA) of a compound of the present invention was calculated from dosages and AUCs of the oral administration group and the intravenous administration group. The dilution concentration or the dilution solvent were changed as necessary.

[6] = test system: HDACs other than HDAC2 (HDAC2 knockout K562 cells); assay: Evaluation of HDAC2 selectivity: H3K9 histone acetylation in HDAC2 knockout K562 cells (AlphaLISA); assay type: cell-based; details: Homo sapiens, maximum concentration 83.3 μM, 100% = SAHA-treated group, read-out: maximum inhibition rate (H3K9 histone acetylation);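 also: 0% inhibition equals DMSO-treated group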
Procedure: Test Example 3: Evaluation of HDAC2 Selectivity
K562 cells were cultured in RPMI1640 medium (SIGMA, R8758) containing 10% FBS (Hyclone, SH30070.03) and 1% penicillin streptomycin (Nacalai Tesque, 26252-94). CompoZr (registered trademark) Zinc Finger Nuclease (Merck) targeting HDAC2 sequences was transfected into K562 cells by electroporation using Nucleofector (Lonza). The cells after transfection were subjected to limiting dilution, and DNA sequencing was performed on the cell clones in which mutations were detected by the PCR method. Cell clones lacking a base number that was not a multiple of 3 in both alleles were identified, and a single-cell cloning was performed on the cell clones to produce HDAC2 knockout K562 cells. It was confirmed that the expression of HDAC2 was not detected by Western blotting in the prepared cells.
By evaluating the H3K9 histone acetylation-enhancing activity of the test compound using HDAC2 knockout K562 cells, the inhibitory activity against HDACs other than HDAC2 was evaluated.
HDAC2 knockout K562 cells stored in liquid nitrogen were thawed and cultured in RPMI1640 medium (Nacalai Tesque, 30264-85) for 2 to 4 days. Using Echo555 (Beckman Coulter), the test compound was dispensed to the assay plate (Corning, 4513) at 37.5 nL/well, and then HDAC2 knockout K562 cells were seeded to 125 cells/4.5 μL/well, and stirred. At this time, the test compound was treated at 8 points (n=2) in the 3-fold dilution series from the maximum concentration of 83.3 μM. After culturing at 37° C. and 5% CO2 overnight, 1.5 μL/well of Lysis buffer (PerkinElmer, AL009F1) was added, and after incubating at room temperature for 15 minutes, 3 μL/well of Extraction buffer (PerkinElmer, AL009F2) was added and the mixture was incubated for 10 minutes at room temperature. Then, 5× antibody solution (prepared by diluting anti-H3K9 Acceptor beads (PerkinElmer, AL114M) 75-fold with a detection buffer prepared by diluting 10×Cell-Histone Detection buffer (PerkinElmer, AL009F3) 10-fold with ultrapure water, and diluting Biotinylated anti H3 antibody (PerkinElmer, AL118M) diluted 150 times with the detection buffer) was added at 3 μL/well, and after incubating at room temperature for 60 minutes, then 5× donor beads solution (prepared by diluting Streptavidin Donor beads (PerkinElmer, 6760002) 75 fold with the detection buffer) was added at 3 μL/well, and the mixture was incubated again at room temperature for 60 minutes, and then the emission value was measured using PHERAstar (BMG LABTECH) (excitation=680 nm, […]). […] For cell toxicity, cell viability rate was evaluated by the PrestoBlue method.

| Structure (SMILES) | IC50 [1] [nM] | remaining rate after reaction [2] [%] | IC50 at 48 h [3] [nM] | % inhibition of tail peak current (IKr) [4] [%] | bioavailability [5] [%] | inhibition at up to 83.3 µM [6] [%] |
| --- | --- | --- | --- | --- | --- | --- |
| Cc1cnc(C(=O)Nc2nc(-c3ccccc3)ccc2N)cn1 [Compound I-169] | 360 | 91.4 | – | – | – | – |
| Cn1cc(-c2cnc(C(=O)Nc3cc(-c4cccs4)ccc3N)cn2)cn1 [Compound I-006] | 54 | – | > 25000 | 14.3 | 35.6 | – |
| CN(C)c1ccc(C(=O)Nc2cc(-c3cnn(C)c3)ccc2N)nc1 [Compound I-177] | 170 | 92 | – | – | – | – |
| Cn1cc(-c2ccc(N)c(NC(=O)c3cnc(OCC(F)F)cn3)c2)cn1 [Compound I-152] | 250 | 97.9 | – | – | – | – |
| Nc1ccc(-n2cccc2)nc1NC(=O)c1cnc(N2CCOCC2)cn1 [Compound I-030] | 190 | 101 | – | – | – | 9 |
| CN(C)c1cnc(C(=O)Nc2cc(-c3cnn(C)c3)ccc2N)cn1 [Compound I-179] | 81 | 93.5 | – | – | – | 9 |
| Cn1cc(-c2ccc(C(=O)Nc3cc(-c4cccs4)ccc3N)nc2)cn1 [Compound I-003] | 310 | – | > 25000 | 17.1 | 33.8 | – |
| Nc1ccc(-c2ccc(F)nc2)cc1NC(=O)c1ccc2ocnc2n1 [Compound I-148] | 150 | 94.9 | – | – | – | – |
